From patent US12310975B2, “Modulators of BCL6 proteolysis and associated methods of use” (Arvinas Operations, Inc., priority 2019, dated 2025)

The compounds below were run against T1, BCL6 (Homo sapiens (Human), UniProt P41182) (assay: BCL6 TR-FRET assay (BCL6-Avitag-Biotin / BCoR-Cy5 peptide)). Settings: read-out: IC50.
Assay type: binding
Procedure: Protein Synthesis. BCL6 protein was expressed by transforming Invitrogen One Shot cells with GS63525 pET24a-His-SUMO-TEV-BCLm-Avitag plasmid following manufacturer's instructions. In addition, biotin at a final concentration of 50 μM, and IPTG at a final concentration of 1 mM was added to the culture and incubated at room temperature shaking overnight.
Assay buffer A: 50 mM HEPES pH 7.5, 125 mM NaCl, 0.01% TritonX.
Assay buffer B (made fresh): buffer A+1 mM Glutathione (or 0.5 mM DTT).
Assay buffer C (made fresh): buffer B+0.03% BSA.
Black Proxy plates, 96 well.
15 μl final reaction volumes (BCoR-Cy5 100 nM, SA-Eu 2 nM, BCL6-avitag 2 nM).
[…] BCL6-Avitag-Biotin stock: made fresh by adding 2 μl of BCL6-Avitag-Biotin to 31.5 ml Buffer C.
1 mM BCoR-Cy5 peptide (LifeTein) stock in Dimethylformamide (DMF).
300 nM BCoR-Cy5 working stock: made fresh by adding 4.5 μl of the 1 mM BCoR-Cy5 peptide stock to 15 ml Buffer B.
10 μM Eu-Streptavidin (Lance Eu-W1024 Streptavidin, PerkinElmer) stock solution.
6 nM Eu-Streptavidin working stock: made fresh by adding 9 μl Eu-Streptavidin stock solution to 15 ml Buffer A.
Compounds were diluted to 10 mM. Twenty microliters of DMSO was aliquoted to each well of the microtiter plates. From the 10 mM compound stock, 8.7 ul was aliquoted to the 20 ul DMSO and 3-fold serial dilutions (12 pt 3-0.01 uM tritration plate, 96 well, 100% DMSO) performed. Five ul from the titration plate wells was aliquoted to 45 ul Buff C (Intermediate dilution plates, 10% DMSO).
Spot 1.5 μl compound titrations to 384-well plates in duplicate, and spot 3.5 μl [8.5 nM] BCL6-bio protein to each well. The plate was mix briefly, centrifuged, and incubated for 30 minutes at room temperature.
Mix 14 mls of BCoR-Cy5 [300 nM] and 14 mls [6 nM] Eu-Streptavidin. Spot 10 μl BCoR-Cy5/SA-Eu (1:1) mix to each well. The plates were incubated for 2 hours and then read on an Envision plate reader.

| IC50 | SMILES |
| --- | --- |
| ≥ 100 nM | CNC(=O)COc1cc2cc(Nc3nc(N4CCC(O[C@@H]5C[C@H](COc6cccc7c6C(=O)N(C6CCC(=O)NC6=O)C7=O)N(C)C5)CC4)ncc3Cl)ccc2n(C(C)C)c1=O (stereo partly drawn) [compound 486, 2-[(6-{[5-chloro-2-(4-{[(3R,5R)-5-({[2-(2,6-dioxopiperidin-3-yl)-1,3-dioxo-2,3-dihydro-1H-isoindol-4-yl]oxy}methyl)-1-methylpyrrolidin-3-yl]oxy}piperidin-1-yl)pyrimidin-4-yl]amino}-2-oxo-1-(propan-2-yl)-1,2-dihydroquinolin-3-yl)oxy]-N-methylacetamide] |

The compounds below were run against T1, BCL6 (assay: Immunofluorescence high content imaging of BCL6 degradation in T47D cells). Settings: T47D cells.
Assay type: cell-based
Outline: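 BCL6 loss was quantified by high-content imaging (10×, 4 fields/well) after PFA fixation and anti-BCL6/Alexa-488 staining with Hoechst nuclear and CellMask counterstains. Compounds were applied for 3 days to T47D breast cancer cells in RPMI-10% FBS, 11 points, 3-fold steps, top 0.1 or 1 μM.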

| Dmax | IC50 | SMILES |
| --- | --- | --- |
| ≥ 70% | 10 to 50 nM | CNC(=O)COc1cc2cc(Nc3nc(N4CCC(OC5CC6(C5)CN(c5cccc7c5CN(C5CCC(=O)NC5=O)C7=O)C6)CC4)ncc3Cl)ccc2n(C(C)C)c1=O (stereo not shown) [compound 424, 2-{[6-({5-chloro-2-[4-({2-[2-(2,6-dioxopiperidin-3-yl)-1-oxo-2,3-dihydro-1H-isoindol-4-yl]-2-azaspiro[3.3]heptan-6-yl}oxy)piperidin-1-yl]pyrimidin-4-yl}amino)-2-oxo-1-(propan-2-yl)-1,2-dihydroquinolin-3-yl]oxy}-N-methylacetamide] |
| 50 to 70% | < 10 nM | CNC(=O)COc1cc2cc(Nc3nc(N4CCC5(CC4)CN(CC4CCN(c6ccc7c(c6)CN(C6CCC(=O)NC6=O)C7=O)CC4)C5)ncc3Cl)ccc2n(C(C)C)c1=O (stereo not shown) [compound 413, 2-{[6-({5-chloro-2-[2-({1-[2-(2,6-dioxopiperidin-3-yl)-1-oxo-2,3-dihydro-1H-isoindol-5-yl]piperidin-4-yl}methyl)-2,7-diazaspiro[3.5]nonan-7-yl]pyrimidin-4-yl}amino)-2-oxo-1-(propan-2-yl)-1,2-dihydroquinolin-3-yl]oxy}-N-methylacetamide] |
| < 50% | 10 to 50 nM | CNC(=O)COc1cc2cc(Nc3nc(N4CCN(CC5CCN(c6cccc(C(=O)NC7CCC(=O)NC7=O)[n+]6[O-])CC5)CC4)ncc3Cl)ccc2n(C(C)C)c1=O (stereo not shown) [compound 397, 2-[4-({4-[5-chloro-4-({3-[(methylcarbamoyl)methoxy]-2-oxo-1-(propan-2-yl)-1,2-dihydroquinolin-6-yl}amino)pyrimidin-2-yl]piperazin-1-yl}methyl)piperidin-1-yl]-6-[(2,6-dioxopiperidin-3-yl)carbamoyl]pyridin-1-ium-1-olate] |
| ≥ 70% | < 10 nM | CNC(=O)COc1cc2cc(Nc3nc(N4CCC(CN5CCC6(CC5)CN(c5ccc7c(c5)CN(C5CCC(=O)NC5=O)C7=O)C6)CC4)ncc3Cl)ccc2n(C(C)C)c1=O (stereo not shown) [compound 417, 2-{[6-({5-chloro-2-[4-({2-[2-(2,6-dioxopiperidin-3-yl)-1-oxo-2,3-dihydro-1H-isoindol-5-yl]-2,7-diazaspiro[3.5]nonan-7-yl}methyl)piperidin-1-yl]pyrimidin-4-yl}amino)-2-oxo-1-(propan-2-yl)-1,2-dihydroquinolin-3-yl]oxy}-N-methylacetamide] |
| < 50% | 50 to 100 nM | CCn1c(=O)c(OCC(=O)NC)cc2cc(Nc3nc(N4CCN([C@@H]5C[C@@H](COc6ccc7c(c6)C(=O)N(C6CCC(=O)NC6=O)C7=O)N(C)C5)CC4)ncc3Cl)ccc21 (stereo partly drawn) [compound 357, 2-({6-[(5-chloro-2-{4-[(3R,5S)-5-({[2-(2,6-dioxopiperidin-3-yl)-1,3-dioxo-2,3-dihydro-1H-isoindol-5-yl]oxy}methyl)-1-methylpyrrolidin-3-yl]piperazin-1-yl}pyrimidin-4-yl)amino]-1-ethyl-2-oxo-1,2-dihydroquinolin-3-yl}oxy)-N-methylacetamide] |
| – | ≥ 100 nM | CNC(=O)COc1cc2cc(Nc3nc(N4CCC(CN5CC6(CCN(c7cccc(C(=O)NC8CCC(=O)NC8=O)c7OC)CC6)C5)CC4)ncc3Cl)ccc2n(C(C)C)c1=O (stereo not shown) [compound 441, 3-[2-({1-[5-chloro-4-({3-[(methylcarbamoyl)methoxy]-2-oxo-1-(propan-2-yl)-1,2-dihydroquinolin-6-yl}amino)pyrimidin-2-yl]piperidin-4-yl}methyl)-2,7-diazaspiro[3.5]nonan-7-yl]-N-(2,6-dioxopiperidin-3-yl)-2-methoxybenzamide] |
| < 50% | < 10 nM | CCn1c(=O)c(OCC(=O)NC)cc2cc(Nc3nc(N4CCC(COC5CCN(c6ccc7c(c6)C(=O)N(C6CCC(=O)NC6=O)C7=O)CC5)CC4)ncc3Cl)ccc21 (stereo not shown) [compound 331, 2-({6-[(5-chloro-2-{4-[({1-[2-(2,6-dioxopiperidin-3-yl)-1,3-dioxo-2,3-dihydro-1H-isoindol-5-yl]piperidin-4-yl}oxy)methyl]piperidin-1-yl}pyrimidin-4-yl)amino]-1-ethyl-2-oxo-1,2-dihydroquinolin-3-yl}oxy)-N-methylacetamide] |

| SMILES | Dmax | IC50 |
| --- | --- | --- |
| CNC(=O)COc1cc2cc(Nc3nc(N4CCC(O[C@H]5C[C@H](N6CCC(c7ccc8c(c7)C(=O)N(C7CCC(=O)NC7=O)C8=O)CC6)C5)CC4)ncc3Cl)ccc2n(C(C)C)c1=O (stereo partly shown) [compound 403, 2-({6-[(5-chloro-2-{4-[(1r,3r)-3-{4-[2-(2,6-dioxopiperidin-3-yl)-1,3-dioxo-2,3-dihydro-1H-isoindol-5-yl]piperidin-1-yl}cyclobutoxy]piperidin-1-yl}pyrimidin-4-yl)amino]-2-oxo-1-(propan-2-yl)-1,2-dihydroquinolin-3-yl}oxy)-N-methylacetamide] | 50 to 70% | < 10 nM |

Same assay, conditions: class symbols A-D, read-out: EC50 (nM)*

| DC50 | SMILES |
| --- | --- |
| > 100 nM | CNC(=O)COc1cc2cc(Nc3nc(N4CCC(OCCOCCOCCOCCOCCOc5cc(-c6scnc6C)ccc5CNC(=O)[C@@H]5C[C@@H](O)CN5C(=O)C(c5cc(C)no5)C(C)C)CC4)ncc3Cl)ccc2n(C)c1=O (stereo partly shown) [compound 55] |
| > 100 nM | CNC(=O)COc1cc2cc(Nc3nc(N4CCC(c5ccccc5OCCCOCCOCCOCCOc5ccc6c(c5)CN(C5CCC(=O)NC5=O)C6=O)CC4)ncc3Cl)ccc2n(C)c1=O (stereo not shown) [compound 90, 2-((6-((5-chloro-2-(4-(2-(3-(2-(2-(2-((2-(2,6-dioxopiperidin-3-yl)-1-oxoisoindolin-5-yl)oxy)ethoxy)ethoxy)ethoxy)propoxy)phenyl)piperidin-1-yl)pyrimidin-4-yl)amino)-1-methyl-2-oxo-1,2-dihydroquinolin-3-yl)oxy)-N-methylacetamide] |
| > 100 nM | CNC(=O)COc1cc2cc(Nc3nc(N4CCC(OCCOCCOCCOCCOCCOCCOc5ccc6c(c5)CN(C5CCC(=O)NC5=O)C6=O)CC4)ncc3Cl)ccc2n(C)c1=O (stereo not shown) [compound 67, 2-((6-((5-chloro-2-(4-((17-((2-(2,6-dioxopiperidin-3-yl)-1-oxoisoindolin-5-yl)oxy)-3,6,9,12,15-pentaoxaheptadecyl)oxy)piperidin-1-yl)pyrimidin-4-yl)amino)-1-methyl-2-oxo-1,2-dihydroquinolin-3-yl)oxy)-N-methylacetamide] |
| > 100 nM | CNC(=O)COc1cc2cc(Nc3nc(N4CCC(OCCCOCCCOc5ccc6c(c5)CN(C5CCC(=O)NC5=O)C6=O)CC4)ncc3Cl)ccc2n(C)c1=O (stereo not shown) [compound 140, 2-((6-((5-chloro-2-(4-(3-(3-((2-(2,6-dioxopiperidin-3-yl)-1-oxoisoindolin-5-yl)oxy)propoxy)propoxy)piperidin-1-yl)pyrimidin-4-yl)amino)-1-methyl-2-oxo-1,2-dihydroquinolin-3-yl)oxy)-N-methylacetamide] |
| 10 to 50 nM | CNC(=O)COc1cc2cc(Nc3nc(N4CCC(c5cccc(OCCOCCOCCOCCOc6ccc7c(c6)CN(C6CCC(=O)NC6=O)C7=O)c5)CC4)ncc3Cl)ccc2n(C)c1=O (stereo not shown) [compound 88, 2-((6-((5-chloro-2-(4-(3-(2-(2-(2-(2-((2-(2,6-dioxopiperidin-3-yl)-1-oxoisoindolin-5-yl)oxy)ethoxy)ethoxy)ethoxy)ethoxy)phenyl)piperidin-1-yl)pyrimidin-4-yl)amino)-1-methyl-2-oxo-1,2-dihydroquinolin-3-yl)oxy)-N-methylacetamide] |
| > 100 nM | CNC(=O)COc1cc2cc(Nc3nc(N4CCC(OCCCOCCCOc5cc(-c6scnc6C)ccc5CNC(=O)[C@@H]5C[C@@H](O)CN5C(=O)C(c5cc(C)no5)C(C)C)CC4)ncc3Cl)ccc2n(C)c1=O (stereo partly drawn) [compound 144, (2S,4R)-N-(2-(3-(3-((1-(5-chloro-4-((1-methyl-3-(2-(methylamino)-2-oxoethoxy)-2-oxo-1,2-dihydroquinolin-6-yl)amino)pyrimidin-2-yl)piperidin-4-yl)oxy)propoxy)propoxy)-4-(4-methylthiazol-5-yl)benzyl)-4-hydroxy-1-(3-methyl-2-(3-methylisoxazol-5-yl)butanoyl)pyrrolidine-2-carboxamide] |
